Data on six compounds can be found in patent US5955337A, “DNA encoding GLS1” (Merck & Co., Inc., priority 1996, dated 1999).

Read-outs that look alike come from different tables or passages of the source. *1 amine or outer side, *2 acyl side, *3 side chain or, on linkers, in order; H or OH if unused. Where a SMILES comes first, the peptide text is derived from it. Bridges are numbered along the chain shown (N, C = ends). [ ]: non-standard residue; d: D form. The star is where a group is joined. dOrn(4R-OH,5R-OH) = O=C([C@@H](C[C@@H](O)[C@@H](O)N[*:3])N[*:1])[*:2]; Tetradecanoyl(10R,12S-Me2) = CC[C@H](C)C[C@H](C)CCCCCCCCC(=O)*; hTyr(3S-OH,4S-OH) = N[C@H](C(=O)O)[C@H](O)[C@@H](O)c1ccc(O)cc1; Pro(3S-OH,4S-Me) = C[C@H]1CN[C@H](C(=O)O)[C@H]1O; Gln(3R-OH) = NC(=O)C[C@@H](O)[C@H](N)C(=O)O; Hyp = O=C(O)[C@@H]1C[C@@H](O)CN1

For one assay, the system named is Pneumocystis carinii. The conditions noted are these: rat model of P. carinii pneumonia; Schmatz et al. 1990; cited from earlier work.
A further assay has as its target T1, 1,3-β-glucan synthase (Saccharomyces cerevisiae, UniProt P06780).
T1 construct: Membrane extracts were prepared from mutant and wild-type cells grown to logarithmic phase; endogenous in cells; host or cells: S. cerevisiae X2180-1A (wild-type) and MS1 (gls1-1 mutant), washed 100,000×g membrane pellet
The assay can be described thus: biochemical. The protocol:
Membrane extracts were prepared from mutant and wild-type cells grown to logarithmic phase (Kang and Cabib, PNAS, 83, 5808-5812, 1986). After homogenization with glass beads, unbroken cells and debris were removed by low speed centrifugation (1,000×g for 5 min). The supernatant fluids were centrifuged at 100,000×g for 60 min, and the resulting pellets were washed with 2.5 ml (per gram of wet cells) of buffer containing 0.05 M potassium phosphate (pH 7.5), 0.5 mM DTT, and 1.0 mM PMSF. The washed pellet was resuspended in the same buffer containing 5% glycerol. This protein extract served as the source for both 1,3-β-glucan synthase and the chitin synthases utilized in the enzymatic assays.
Protein concentrations were determined using BCA protein assay reagent kit (Pierce Corp.), utilizing bovine serum album (BSA; Pierce Corp.) as a standard. The 1,3-β-glucan synthase reactions were performed as previously described (Cabib, E., and M. S. Kang. 1987. Fungal 1,3-b-glucansynthase, Methods Enzymol. 138: 637-642). Briefly, an […] reaction contained 125 mM Tris HCL (pH7.5), 0.25 mM dithiothretol, 30 mM KF, 0.3 M glycerol, 0.23% BSA, 0.125 mM PMSF, 2 mM UDP-glucose, […] guanosine 5'-(g-thio) triphosphate (GTPγS), 0.1 nmol UDP-[^3 H] glucose (Amersham; 4.5 Ci/mmol;) plus […] of membrane protein extract. The reactions were performed in the presence of 0.0, 0.1, 0.5, 5, 25 and 50 mM L, 733-560 for dose titration of the drug. Following incubation at 25° C. for 150 minutes, the [^3 H]-glucose incorporated into trichloroacetic acid-insoluble material was collected onto glass fiber filters (102×258 mm) and measured using a betaplate liquid scintillation counter (Cambridge Technologies Inc.; series 2800 harvester) at 25% efficiency. The product of such reactions was verified by solubilization by laminarinase (Sigma, #L9259) but not by α-amylase (Sigma, #A2643).
To study activation of 1,3-β-glucan synthesis by GTPγS incorporation of UDP-glucose into 1,3-β-D glucans, in absence and in presence of 3.3 uM GTPγS was measured. […]

The subject of assay [1] is Strain MS1 (gls1-1 mutant). Put plainly: Effect of antifungal drugs on strain MS1 relative to wild-type parental strain. It is filed as cell-based, Saccharomyces cerevisiae. The conditions noted are these: FIG. 2, FIG. 10. The protocol:
To quantitate the echinocandin sensitivity/resistance of the mutant strains, yeast cells grown to log phase were inoculated into 2 ml SC broth and incubated overnight at 28° C. A flat bottom 96-well microtiter plate was seeded with 75 μl of SC medium in columns 2 through 12. To column 1, 150 μl medium was added. Echinocandin (L-733,560) was prepared at a concentration of 30 μg/ml solution in sterile distilled water. An aliquot (75 μl) of echinocandin solution was added to column 3, and 75 μl from column 3 was transferred to column 4, followed by mixing of the contents of each well. 75 μl from column 4 was transferred into column 5, and the serial dilution was carried on to column 12 from which a 75 μl was discarded. A dilution of 6×10^5 cells/ml in URA drop out medium was prepared from the yeast strains. 75 μl cell suspension was then added to columns 2 through 12 giving 4.5×10^4 cells/well. The plates were incubated at 28° C. for 24-48 hr. Growth in the presence and absence of echinocandin was measured by absorbance at 600 nm.

The test system of a further assay is MS1 (gls1-1). Put plainly: Zone of growth inhibition assay, gls1-1 mutant. In kind it is cell-based, Saccharomyces cerevisiae. As to conditions: μg/Disc: L,733-560 20; L-688-786 10; Aculeacin 50; Papulacandin 50; Nikkomycin Z 10; Rapamycin 12.5. From the text: (§1) Mutations of the GLS1 gene, including but not limited to gls1-1 (strain MS1), gls1-2 (strain MS41) and gls1-3 (strain MS43), or disruptions or deletions of GLS1, are useful for screening for glucan synthase inhibitors. Such a screen relies on the increase in echinocandin-resistance and in papulacandin sensitivity of such mutants compared to an GLS1 wild-type strain. Any technique capable of detecting this difference in sensitivity can be used. A zone of inhibition assay on agar plates is particularly useful.
(§2) The GLS1 and the fks1-4 mutants can be incorporated into an assay to screen and classify antifungal compounds with chitin and glucan synthase inhibitory effects, based on their differential resistance/sensitivity to the echinocandins, papulacandin and Nikkomycin Z. The data from this assay and the sizes of the zones of growth inhibition in millimeter is given in the following table: […]

The next assay has as its system X2180 (WT). The assay can be described thus: Zone of growth inhibition assay, wild-type strain. It is filed as cell-based, Saccharomyces cerevisiae. The conditions noted are these: μg/Disc: L,733-560 20; L-688-786 10; Aculeacin 50; Papulacandin 50; Nikkomycin Z 10; Rapamycin 12.5.
Text: as §1, §2

The subject of another assay is MS14 (fks1-4). Put plainly: Zone of growth inhibition assay, fks1-4 mutant. It is filed as cell-based, Saccharomyces cerevisiae. The conditions noted are these: μg/Disc: L,733-560 20; L-688-786 10; Aculeacin 50; Papulacandin 50; Nikkomycin Z 10; Rapamycin 12.5.
Text: as §1, §2

The test system of assay [2] is fks1-4 mutant (strain MS14). Put plainly: Resistance/sensitivity of fks1-4 mutant relative to wild-type. In kind it is cell-based, Saccharomyces cerevisiae. As to conditions: fks1-4 mutant vs wild-type.
Text: as §2

T1 sequence (P38631 whole entry): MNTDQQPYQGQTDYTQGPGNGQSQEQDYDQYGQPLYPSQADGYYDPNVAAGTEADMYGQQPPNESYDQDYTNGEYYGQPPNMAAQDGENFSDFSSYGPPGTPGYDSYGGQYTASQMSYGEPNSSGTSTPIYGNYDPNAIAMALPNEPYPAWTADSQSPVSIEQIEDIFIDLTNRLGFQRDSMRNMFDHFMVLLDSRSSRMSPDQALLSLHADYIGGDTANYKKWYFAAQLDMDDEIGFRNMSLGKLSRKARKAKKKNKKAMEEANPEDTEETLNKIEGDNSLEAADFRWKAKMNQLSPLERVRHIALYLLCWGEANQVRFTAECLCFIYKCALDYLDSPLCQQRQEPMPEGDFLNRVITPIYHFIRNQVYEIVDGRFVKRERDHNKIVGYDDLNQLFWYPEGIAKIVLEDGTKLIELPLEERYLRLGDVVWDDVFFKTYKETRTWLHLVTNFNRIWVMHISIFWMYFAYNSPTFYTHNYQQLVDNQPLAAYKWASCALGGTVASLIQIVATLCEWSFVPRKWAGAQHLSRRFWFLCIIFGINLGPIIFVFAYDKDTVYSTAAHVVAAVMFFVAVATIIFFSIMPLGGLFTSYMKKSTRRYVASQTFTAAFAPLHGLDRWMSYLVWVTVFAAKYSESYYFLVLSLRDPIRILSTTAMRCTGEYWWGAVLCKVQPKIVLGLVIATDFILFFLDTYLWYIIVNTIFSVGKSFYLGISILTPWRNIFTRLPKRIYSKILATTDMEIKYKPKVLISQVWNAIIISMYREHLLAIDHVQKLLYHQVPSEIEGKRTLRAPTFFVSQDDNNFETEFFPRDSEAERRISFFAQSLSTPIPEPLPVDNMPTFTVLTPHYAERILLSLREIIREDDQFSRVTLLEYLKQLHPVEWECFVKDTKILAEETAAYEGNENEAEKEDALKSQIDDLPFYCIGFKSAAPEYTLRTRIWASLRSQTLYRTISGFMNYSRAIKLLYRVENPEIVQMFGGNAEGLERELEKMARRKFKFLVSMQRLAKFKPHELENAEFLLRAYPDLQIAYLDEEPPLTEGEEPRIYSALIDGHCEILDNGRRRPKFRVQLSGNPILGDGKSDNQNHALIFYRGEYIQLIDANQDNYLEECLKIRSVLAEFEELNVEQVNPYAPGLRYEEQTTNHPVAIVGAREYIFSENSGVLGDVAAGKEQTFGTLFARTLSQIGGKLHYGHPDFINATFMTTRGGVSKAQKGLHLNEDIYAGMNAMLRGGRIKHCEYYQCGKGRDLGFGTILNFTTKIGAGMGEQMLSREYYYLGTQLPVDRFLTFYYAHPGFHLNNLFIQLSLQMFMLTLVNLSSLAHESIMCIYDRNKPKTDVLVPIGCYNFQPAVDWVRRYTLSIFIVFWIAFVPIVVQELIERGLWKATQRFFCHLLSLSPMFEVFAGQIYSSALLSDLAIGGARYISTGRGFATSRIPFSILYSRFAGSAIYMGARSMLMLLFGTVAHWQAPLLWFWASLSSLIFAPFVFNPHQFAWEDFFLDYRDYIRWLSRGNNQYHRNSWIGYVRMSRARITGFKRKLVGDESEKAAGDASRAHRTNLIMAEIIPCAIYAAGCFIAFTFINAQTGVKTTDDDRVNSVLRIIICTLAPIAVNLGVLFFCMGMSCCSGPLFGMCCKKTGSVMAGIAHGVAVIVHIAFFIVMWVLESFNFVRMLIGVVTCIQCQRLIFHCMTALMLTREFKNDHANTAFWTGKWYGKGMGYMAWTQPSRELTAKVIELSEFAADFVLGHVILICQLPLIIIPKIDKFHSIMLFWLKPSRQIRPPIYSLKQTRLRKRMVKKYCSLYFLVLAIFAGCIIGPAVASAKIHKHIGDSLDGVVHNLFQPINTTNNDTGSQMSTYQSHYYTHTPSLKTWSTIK
T1 sequence (P06780 2-206): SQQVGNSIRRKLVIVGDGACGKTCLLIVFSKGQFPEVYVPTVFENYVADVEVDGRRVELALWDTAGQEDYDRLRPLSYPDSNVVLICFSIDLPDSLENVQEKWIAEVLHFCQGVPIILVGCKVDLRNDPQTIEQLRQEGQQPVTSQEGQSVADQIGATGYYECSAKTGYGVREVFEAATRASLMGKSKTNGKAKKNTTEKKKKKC

In the case of `CC[C@H](C)C[C@H](C)CCCCCCCCC(=O)N[C@@H]1C[C@@H](O)[C@@H](O)NC(=O)[C@@H]2[C@@H](O)[C@@H](C)CN2C(=O)[C@H]([C@H](O)CC(N)=O)NC(=O)[C@H]([C@H](O)[C@@H](O)c2ccc(O)cc2)NC(=O)[C@@H]2C[C@@H](O)CN2C(=O)[C@H]([C@@H](C)O)NC1=O` [L-671,329] ({Tetradecanoyl(10R,12S-Me2)}-[dOrn(4R-OH,5R-OH)]T[Hyp][hTyr(3S-OH,4S-OH)][Gln(3R-OH)][Pro(3S-OH,4S-Me)]; lactam 1-C), in the assay with Pneumocystis carinii, the “reduction of the number of cysts in the lungs of infected rats” value is listed as “effective in reducing the number of cysts”.

For the compound `Nc1nc2c(ncn2[C@@H]2O[C@H](COP(=O)(O)OP(=O)(O)OP(O)(O)=S)[C@@H](O)[C@H]2O)c(=O)[nH]1` [GTPγS, guanosine 5'-(g-thio) triphosphate], the “response of MS1 mutant enzymatic activity to increasing concentrations of GTPγS” value at 1,3-β-glucan synthase (MS1 mutant membranes, FIG. 5) is “responded rather poorly”. Moreover, the fold induction at 3.3 µM on 1,3-β-glucan synthase (read-out: stimulation of glucan synthesis by GTPγS, MS1 mutant enzyme) is 6; at 1,3-β-glucan synthase (read-out: stimulation of glucan synthesis by GTPγS, first value) it was roughly 19.

Consider `CCC(O)/C=C/C=C/C=C/C(=O)OC[C@H]1O[C@@H](O[C@H]2[C@H](OC(=O)/C=C/C=C/CC(O)/C(C)=C/C=C/CCC(C)CC)[C@@H](O)[C@@]3(OCc4cc(O)cc(O)c43)O[C@@H]2CO)[C@H](O)[C@@H](O)[C@H]1O` (stereo partly shown) [Papulacandin], for which, in assay [1], the “sensitivity/resistance of MS1 cells compared with wild-type parental strain” value was “more sensitive”. Moreover, the “size of the zone of growth inhibition, MS1 (gls1-1)” value in the assay with MS1 (gls1-1) is listed as 20 millimeter. Moreover, in the assay on X2180 (WT), the “size of the zone of growth inhibition, X2180 (WT)” value was found to be 10 millimeter. Besides, the “size of the zone of growth inhibition, MS14 (fks1-4)” value in the assay on MS14 (fks1-4) is 10 millimeter.

As to Aculeacin, the “size of the zone of growth inhibition, MS1 (gls1-1)” value with MS1 (gls1-1) is recorded as 9 millimeter. In addition, the “size of the zone of growth inhibition, X2180 (WT)” value in the assay on X2180 (WT) amounted to 15 millimeter. The “size of the zone of growth inhibition, MS14 (fks1-4)” value with MS14 (fks1-4) is 0.0 millimeter.

Take `CO[C@H]1C[C@@H]2CC[C@@H](C)[C@@](O)(O2)C(=O)C(=O)N2CCCC[C@H]2C(=O)O[C@H]([C@H](C)C[C@@H]2CC[C@@H](O)[C@H](OC)C2)CC(=O)[C@H](C)/C=C(\C)[C@@H](O)[C@@H](OC)C(=O)[C@H](C)C[C@H](C)/C=C/C=C/C=C/1C` [Rapamycm, rapamycin]: in assay [1], the “sensitivity/resistance of MS1 cells compared with wild-type parental strain” value was “more sensitive”. Moreover, the “size of the zone of growth inhibition, MS1 (gls1-1)” value in the assay on MS1 (gls1-1) is 13 millimeter. In addition, the “size of the zone of growth inhibition, X2180 (WT)” value in the assay on X2180 (WT) is 0.0 millimeter. Moreover, in the assay with MS14 (fks1-4), the “size of the zone of growth inhibition, MS14 (fks1-4)” value turned out to be 0.0 millimeter.

Turning to `C[C@@H]([C@H](N)C(=O)N[C@H](C(=O)O)[C@H]1O[C@@H](n2ccc(=O)[nH]c2=O)[C@H](O)[C@@H]1O)[C@H](O)c1ccc(O)cn1` [Nikkomycin Z], the “size of the zone of growth inhibition, MS1 (gls1-1)” value in the assay on MS1 (gls1-1) was determined as 0.0 millimeter. In addition, the “size of the zone of growth inhibition, X2180 (WT)” value in the assay on X2180 (WT) is given as 0.0 millimeter. For the same compound, the “size of the zone of growth inhibition, MS14 (fks1-4)” value in the assay with MS14 (fks1-4) is 30.0 millimeter. In addition, the “fold more sensitive than wild-type, fks1-4 mutant (MS14)” value in assay [2] is 1000 fold.
